# Measured values reported in ChEMBL document CHEMBL5230092, “PFKFB3 inhibitors as potential anticancer agents: Mechanisms of action, current developments, and structure-activity relationships” (Eur J Med Chem, 2020).
# What was measured:
# [1] = target: T1, 6-phosphofructo-2-kinase/fructose-2,6-bisphosphatase 3 (Homo sapiens, UniProt Q16875); format: cell-based, PANC-1
# [2] = target: T1, 6-phosphofructo-2-kinase/fructose-2,6-bisphosphatase 3; test: Inhibition of PFKFB3 (unknown origin) at 250 nM relative to control
# [3] = Half life in Beagle dog at 6 mg/kg, iv by LC-MS/MS analysis; format: ADME, organism-based, Canis lupus familiaris; settings: in vivo
# [4] = Oral bioavailability in Beagle dog by LC-MS/MS analysis; format: ADME, organism-based, Canis lupus familiaris; settings: in vivo
# [5] = AUC in Beagle dog at 6 mg/kg, iv by LC-MS/MS analysis; format: ADME, organism-based, Canis lupus familiaris; design: dose 6 mg/kg, route iv; settings: in vivo
# [6] = target: T1, 6-phosphofructo-2-kinase/fructose-2,6-bisphosphatase 3; test: Inhibition of PFKFB3 (unknown origin) by ADP-Glo luminescent assay
# [7] = target: T1, 6-phosphofructo-2-kinase/fructose-2,6-bisphosphatase 3; format: cell-based, MIA PaCa-2
# [8] = target: T1, 6-phosphofructo-2-kinase/fructose-2,6-bisphosphatase 3; format: cell-based, NUGC-3
# [9] = Half life in iv dosed C57BL/6 mouse by LC-MS/MS analysis; format: ADME, organism-based; settings: in vivo
# [10] = Oral bioavailability in BALBc mouse by LC-MS/MS analysis; format: ADME, organism-based; settings: BALB/c, in vivo
# [11] = AUC in BALBc mouse at 10 mg/kg, iv by LC-MS/MS analysis; format: ADME, organism-based; design: dose 10 mg/kg, route iv; settings: BALB/c, in vivo
# [12] = Half life in BALBc mouse at 10 mg/kg, iv by LC-MS/MS analysis; format: ADME, organism-based; settings: BALB/c, in vivo
# [13] = target: T1, 6-phosphofructo-2-kinase/fructose-2,6-bisphosphatase 3; test: Binding affinity to PFKFB3 (unknown origin) by MST assay
# HT-29 = test: Antiproliferative activity against human HT-29 cells assessed as cell growth inhibition measured after 72 hrs by MTT assay; format: functional
# [14] = target: T1, 6-phosphofructo-2-kinase/fructose-2,6-bisphosphatase 3; test: Inhibition of PFKFB3 (unknown origin) at 100 uM relative to control
# MDA-MB-231 = test: Antiproliferative activity against human MDA-MB-231 cells assessed as cell growth inhibition measured after 72 hrs by MTT assay; format: functional
# A549 = test: Antiproliferative activity against human A549 cells assessed as cell growth inhibition measured after 72 hrs by MTT assay; format: functional
# HeLa [15] = test: Antiproliferative activity against human HeLa cells assessed as cell growth inhibition measured after 72 hrs by MTT assay; format: functional
# [16] = target: T1, 6-phosphofructo-2-kinase/fructose-2,6-bisphosphatase 3; test: Inhibition of PFKFB3 (unknown origin) by UV-vis spectrophotometry
# [17] = target: T1, 6-phosphofructo-2-kinase/fructose-2,6-bisphosphatase 3; test: Inhibition of full-length human PFKFB3 (1 to 520 residues) incubated for 2 hrs in presence of ATP by ADP-Glo assay
# [18] = AUC in Sprague-Dawley rat at 10 mg/kg, iv by LC-MS/MS analysis; format: ADME, organism-based; design: dose 10 mg/kg, route iv; settings: in vivo
# [19] = Volume of distribution in Sprague-Dawley rat at 10 mg/kg, iv by LC-MS/MS analysis; format: ADME, organism-based; settings: in vivo
# [20] = Half life in Sprague-Dawley rat at 10 mg/kg, iv by LC-MS/MS analysis; format: ADME, organism-based; settings: in vivo
# [21] = Oral bioavailability in Sprague-Dawley rat by LC-MS/MS analysis; format: ADME, organism-based; settings: in vivo
# [22] = Cmax in Sprague-Dawley rat at 10 mg/kg, iv by LC-MS/MS analysis; format: ADME, organism-based; design: dose 10 mg/kg, route iv; settings: in vivo
# [23] = Cytotoxicity against human Epithelial cell assessed as cell growth inhibition; format: toxicity, cell-based; settings: epithelial cells
# [24] = target: T1, 6-phosphofructo-2-kinase/fructose-2,6-bisphosphatase 3; test: Inhibition of PFKFB3 (unknown origin)
# [25] = Half life in BALB/c mouse at 5 mg/kg, iv by LC-MS/MS analysis; format: ADME, organism-based; settings: in vivo
# [26] = Metabolic stability in human liver microsomes; format: ADME, Microsome
# [27] = Clearance in BALB/c mouse at 5 mg/kg, iv by LC-MS/MS analysis; format: ADME, organism-based; settings: in vivo
# [28] = Toxicity in Sprague-Dawley rat assessed as maximum tolerated dose; settings: in vivo
# [29] = AUC in BALB/c mouse at 5 mg/kg, iv by LC-MS/MS analysis; format: ADME, organism-based; design: dose 5 mg/kg, route iv; settings: in vivo
# HeLa [30] = test: Antiproliferative activity against human HeLa cells assessed as cell growth inhibition; format: functional
# [31] = Metabolic stability in human liver microsomes assessed as clearance; format: ADME, Microsome; settings: read-out: CLH
# [32] = Metabolic stability in mouse liver microsomes assessed as clearance; format: ADME, Microsome; settings: read-out: CLH
# [33] = target: T1, 6-phosphofructo-2-kinase/fructose-2,6-bisphosphatase 3; test: Inhibition of PFKFB3 (unknown origin) incubated for 90 mins by ADP-Glo luminescent assay
# [34] = target: 6-phosphofructo-2-kinase/fructose-2,6-bisphosphatase 4 (Homo sapiens) (UniProt Q16877); test: Inhibition of PFKFB4 (unknown origin) at 5.94 uM relative to control
# [35] = target: 6-phosphofructo-2-kinase/fructose-2,6-bisphosphatase 1 (Homo sapiens) (UniProt P16118); test: Inhibition of PFKFB1 (unknown origin) at 5.94 uM relative to control
# [36] = target: 6-phosphofructo-2-kinase/fructose-2,6-bisphosphatase 2 (Homo sapiens) (UniProt O60825); test: Inhibition of PFKFB2 (unknown origin) at 5.94 uM relative to control
# Chain of 6-phosphofructo-2-kinase/fructose-2,6-bisphosphatase 2 (Homo sapiens) (O60825 2-505 limits assumed): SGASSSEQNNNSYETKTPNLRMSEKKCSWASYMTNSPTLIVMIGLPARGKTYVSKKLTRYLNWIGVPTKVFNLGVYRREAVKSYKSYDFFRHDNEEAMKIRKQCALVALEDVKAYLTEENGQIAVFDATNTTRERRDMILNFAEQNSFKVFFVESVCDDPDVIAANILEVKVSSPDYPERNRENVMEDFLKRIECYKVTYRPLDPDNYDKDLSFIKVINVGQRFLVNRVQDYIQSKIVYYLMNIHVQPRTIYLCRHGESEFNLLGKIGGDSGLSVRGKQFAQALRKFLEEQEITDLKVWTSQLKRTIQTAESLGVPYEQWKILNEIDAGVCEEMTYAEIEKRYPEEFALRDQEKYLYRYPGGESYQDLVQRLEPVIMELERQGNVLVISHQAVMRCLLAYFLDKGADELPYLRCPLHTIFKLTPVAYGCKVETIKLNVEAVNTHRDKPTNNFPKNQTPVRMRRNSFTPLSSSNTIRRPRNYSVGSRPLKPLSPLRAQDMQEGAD
# T1 sequence (Q16875 whole entry): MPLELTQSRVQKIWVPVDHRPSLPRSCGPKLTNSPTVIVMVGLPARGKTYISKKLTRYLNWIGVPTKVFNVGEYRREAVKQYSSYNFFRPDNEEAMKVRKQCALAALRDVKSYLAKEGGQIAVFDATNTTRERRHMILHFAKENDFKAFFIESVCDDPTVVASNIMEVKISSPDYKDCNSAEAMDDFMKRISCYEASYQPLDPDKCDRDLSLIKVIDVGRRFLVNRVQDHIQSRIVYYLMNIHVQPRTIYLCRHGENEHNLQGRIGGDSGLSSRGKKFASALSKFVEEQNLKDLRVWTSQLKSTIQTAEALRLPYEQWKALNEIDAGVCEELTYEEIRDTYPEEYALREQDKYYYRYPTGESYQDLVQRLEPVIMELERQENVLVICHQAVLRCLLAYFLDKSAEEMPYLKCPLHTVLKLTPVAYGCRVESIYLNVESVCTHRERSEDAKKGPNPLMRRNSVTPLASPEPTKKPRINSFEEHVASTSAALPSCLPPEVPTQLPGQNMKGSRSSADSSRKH
# Chain of 6-phosphofructo-2-kinase/fructose-2,6-bisphosphatase 4 (Homo sapiens) (Q16877 whole entry, looked up): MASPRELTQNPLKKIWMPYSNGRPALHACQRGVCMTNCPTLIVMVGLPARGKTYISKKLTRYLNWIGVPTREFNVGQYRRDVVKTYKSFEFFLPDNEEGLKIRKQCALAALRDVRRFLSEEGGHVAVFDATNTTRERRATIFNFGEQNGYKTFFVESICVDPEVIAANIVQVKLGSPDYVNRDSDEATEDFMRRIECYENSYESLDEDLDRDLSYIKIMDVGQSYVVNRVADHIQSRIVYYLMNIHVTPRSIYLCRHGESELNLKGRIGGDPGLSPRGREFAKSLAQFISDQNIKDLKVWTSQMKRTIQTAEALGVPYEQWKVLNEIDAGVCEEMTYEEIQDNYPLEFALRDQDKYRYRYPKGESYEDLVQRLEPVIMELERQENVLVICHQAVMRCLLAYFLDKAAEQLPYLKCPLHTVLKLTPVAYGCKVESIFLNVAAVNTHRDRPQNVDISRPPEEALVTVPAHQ
# Chain of 6-phosphofructo-2-kinase/fructose-2,6-bisphosphatase 1 (Homo sapiens) (P16118 2-471 limits assumed): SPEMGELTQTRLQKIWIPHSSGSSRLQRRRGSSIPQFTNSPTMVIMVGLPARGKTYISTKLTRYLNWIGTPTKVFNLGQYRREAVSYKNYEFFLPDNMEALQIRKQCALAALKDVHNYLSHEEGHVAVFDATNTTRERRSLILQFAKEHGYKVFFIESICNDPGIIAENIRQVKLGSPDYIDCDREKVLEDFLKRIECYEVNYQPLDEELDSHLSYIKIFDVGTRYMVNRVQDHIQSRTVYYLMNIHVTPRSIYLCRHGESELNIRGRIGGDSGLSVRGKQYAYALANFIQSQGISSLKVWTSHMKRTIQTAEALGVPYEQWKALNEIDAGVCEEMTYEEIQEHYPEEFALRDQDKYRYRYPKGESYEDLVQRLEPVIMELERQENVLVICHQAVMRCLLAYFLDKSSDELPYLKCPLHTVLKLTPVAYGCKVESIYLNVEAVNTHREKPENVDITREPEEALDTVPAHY
structure (smiles),measurement,setting,value
Cc1c(S(=O)(=O)Nc2cccc(C(=O)O)c2)sc2ccc(C(C)C)cc12,IC50,[1],2.3 µM
Nc1ccc(C(=O)c2cc3c(ccc4ccccc43)[nH]2)cc1,inhibition,[2],81.5%
same,half-life,[3],5.8 h
same,bioavailability,[4],95%
same,AUC,[5],5070 ng·h/mL
O=C(O)c1ccc(NS(=O)(=O)c2cc(-c3ccc4c(c3)OCO4)c(Cl)s2)cc1O,IC50,[6],0.2 µM
O=C(OCCO)c1ccc(NS(=O)(=O)c2cccc(-c3cc(F)ccc3O)c2)cc1O,IC50,[7],0.09 µM
same,IC50,[1],0.09 µM
same,IC50,[8],0.09 µM
O=C(/C=C/c1ccc2ccccc2n1)c1ccncc1,half-life,[9],5.1 h
O=C(c1ccccc1)c1cc2c(ccc3ccccc32)[nH]1,inhibition,[2],13.5%
same,bioavailability,[10],25%
same,AUC,[11],2630 ng·h/mL
same,half-life,[12],2.1 h
CC(C)C[C@H](NC(=O)[C@H](Cc1ccccc1)NC(=O)CNC(=O)[C@H](CO)NC(=O)[C@@H](N)Cc1ccc(O)cc1)C(=O)N[C@H](C(=O)O)[C@@H](C)O,K,[13],44 µM
Cc1ccc(/C=N/NC(=O)c2nnn(-c3nonc3N)c2-c2ccc([N+](=O)[O-])cc2)cc1,GI50,HT-29,18 µM
same,inhibition,[14],17%
same,GI50,MDA-MB-231,18 µM
same,GI50,A549,18 µM
same,GI50,HeLa [15],15.1 µM
COc1cccc([C@H](C)Nc2cc(-c3ccc4ncsc4c3)nc(C)n2)c1,IC50,[16],< 0.5 µM
O=C(O)c1ccc(NS(=O)(=O)c2cc(Cl)sc2Cl)cc1O,IC50,[6],0.29 µM
CC(C)OC(=O)c1cccc(-c2cc(S(=O)(=O)Nc3ccc(C(=O)O)c(O)c3)sc2Cl)c1,IC50,[6],0.15 µM
O=C(O)c1ccc(NS(=O)(=O)c2cccc(-c3ccc4ncccc4c3)c2)cc1O,IC50,[6],0.28 µM
N[C@H](Cc1c[nH]c2ccccc12)C(=O)NCC(=O)N[C@H](Cc1ccc(O)cc1)C(=O)O,K,[13],3 µM
O=C1NC=NC2C1C=C(c1ccc(Br)cc1)N2c1ccccc1 (stereo not given),IC50,[17],0.398 µM
Cl.O=C(c1ccncc1)c1cc2c(ccc3ccccc32)[nH]1,inhibition,[2],26.2%
same,AUC,[18],1290 ng·h/mL
same,Vd,[19],2.5 L/kg
same,half-life,[20],5.5 h
same,bioavailability,[21],38%
same,Cmax,[22],16900 ng/mL
CC(C)C[C@H](NC(=O)[C@H](CC(C)C)NC(=O)[C@H](Cc1ccccc1)NC(=O)[C@@H](N)CO)C(=O)N[C@@H](CCCN=C(N)N)C(N)=O,K,[13],18 µM
COc1ccc(C2=CN(c3cccc(OC)c3)C3N=CNC(=O)C23)cc1 (stereo not given),IC50,[17],0.251 µM
O=C(/C=C/c1cccnc1)c1ccncc1,IC50,[23],1.4 µM
O=C(CBr)NCCOP(=O)(O)O,IC50,[24],2000 µM
O=C(/C=C/c1ccc2ccc(C(F)(F)F)cc2n1)c1ccncc1 [PFK-158],half-life,[25],10.5 h
same,Stability,[26],37%
same,clearance,[27],26 mL/min/kg
same,MTD,[28],> 40 mg/kg
same,AUC,[29],3240 ng·h/mL
CCOC(=O)c1cc2ccc(O)cc2oc1=O,GI50,HeLa [30],2.7 µM
Cn1cc([C@H](Nc2cc(-c3ccc4ccn(C)c4c3)c3nccnc3c2)c2cnnn2C)cn1,microsomal CLint,[31],50 µL/min/mg
same,microsomal CLint,[32],29 µL/min/mg
COc1ccc(C(Nc2cc(-c3ccc4ccn(C)c4c3)c3nccnc3c2)c2cnnn2C)cn1 (stereo not given),IC50,[33],0.0035 µM
O=C1NC=NC2C1C(c1ccc(Cl)cc1)=CN2c1ccccc1 (stereo not given),IC50,[17],0.631 µM
O=C1NC=NC2C1C(c1ccccc1)=CN2c1ccc(Br)cc1 (stereo not given),IC50,[17],0.398 µM
O=c1cc(-c2ccc(O)cc2)oc2c(O)c(O)c(O)c(O)c12,inhibition,[34],< 50%
same,inhibition,[35],< 50%
same,inhibition,[36],< 50%
